Assay results taken from paper PMC4488959, “Structural Features of a Bacteroidetes-Affiliated Cellulase Linked with a Polysaccharide Utilization Locus” (Scientific Reports, 2015).

Target: T1, AC2aCel5A (Bacteroidetes bacterium AC2a, UniProt A0A076MPD7, E189A)
T1 construct: signal peptide (residues 1-18) removed; mature 397 residues + C-terminal eight-residue His6-tag (405 residues), tag kept; synthetic gene, pNIC-CH, Escherichia coli
Test: X-ray crystal structure (co-crystallization with […] cellotetraose)
Assay type: binding
Settings: 2.4 Å; subsites -3 to -1, molecule A only; crystals from 0.2 M potassium nitrate, 20% w/v PEG 3350; catalytically inactive mutant; authors consider that bound ligand is likely cellotetraose with fourt

T1 sequence (A0A076MPD7 entry or part of it E189A): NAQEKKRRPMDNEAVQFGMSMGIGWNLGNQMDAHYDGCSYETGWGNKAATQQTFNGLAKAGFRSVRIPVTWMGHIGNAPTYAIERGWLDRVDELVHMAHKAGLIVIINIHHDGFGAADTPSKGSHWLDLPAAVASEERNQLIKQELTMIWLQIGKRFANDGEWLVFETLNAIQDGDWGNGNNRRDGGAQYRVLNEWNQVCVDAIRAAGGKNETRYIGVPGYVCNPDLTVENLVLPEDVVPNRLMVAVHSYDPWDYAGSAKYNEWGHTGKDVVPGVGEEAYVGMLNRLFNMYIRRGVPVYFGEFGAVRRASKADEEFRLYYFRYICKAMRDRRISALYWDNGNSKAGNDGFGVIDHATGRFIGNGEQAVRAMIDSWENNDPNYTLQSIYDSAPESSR

## OC[C@H]1O[C@@H](O[C@H]2[C@H](O)[C@@H](O)[C@H](O[C@H]3[C@H](O)[C@@H](O)C(O)O[C@@H]3CO)O[C@@H]2CO)[C@H](O)[C@@H](O)[C@@H]1O (stereo partly shown) [cellotriose]
  X-ray crystal structure (co-crystallization with 5 mM cellotetraose): Additional electron density was observed in the active-site cleft of molecule A, and was refined
